Results as given in patent US12527776B2, “Treatment of ciliopathies using inhibitors of glucosylceramide synthase (GCS)” (GENZYME CORPORATION, priority 2019, dated 2026).

Tests used:
[1] = tested on: Bbs2−/− mouse model of BBS; test: GL1 analysis in tissues of Bbs2−/− mice; type: in vivo; details: 0.033% w/w in feed from 1 to 6 months of age
Source text: (§1) A Bbs2^−/− mouse model has been described by Nishimura D Y et al. (Proc Natl Acad Sci, 101:16588-16593 (2004)) with exons 5-14 of Bbs2 replaced with a neomycin cassette. Mice were backcrossed into 129/SvJ background. Treated Bbs2^−/− mice were fed ad libitum with 0.033% w/w of Compound 1 incorporated in feed from the age of 1 month to 6 months. Bbs2^−/− and Wt control animals were fed regular 5053 chow (LabDiet). To establish metabolic disease, Bbs2^−/− mice were left untreated until four-months of age, and then treated with Compound 1 incorporated into feed for the fifth and sixth months.
Quantitative analysis of glycosylceramide was performed by liquid chromatography and tandem mass spectrometry (LC/MS/MS). Briefly, 100 mg of tissue were homogenized in 1 ml of water with Mini Beadbeater (BioSpec Products, Inc., Bartlesville, OK). 10 μl of homogenate was extracted with 1 ml of 90% of 96:2:1:1 acetonitrile/methanol/acetic acid/water (v/v/v/v) (mobile phase A) and 10% of 98:1:1 methanol/acetic acid/water (v/v/v) (mobile phase B); both contained 5 mM ammonium acetate. The samples were placed on a VX-2500 tube vortexer (VWR International, LLC, MA) for 5 min and then centrifuged for 4 min at 8,400 rpm (Beckman Coulter, Inc., IN). […] Quantitation was performed using GL1 standard (Glucocerebrosides, Gaucher's spleen; Matreya, LLC, Pleasant Gap, PA).

Bbs2−/− mice [2] = test: Retinal degeneration in Bbs2−/− mice (OCT, immunofluorescence); type: in vivo, mouse; details: treatment for 5 months from one month of age
Source text: as §1
A non-invasive imaging technique, optical coherence tomography (OCT) using the Bioptigen Envisu R2200 instrument, was used to generate a cross-sectional image of the retina with 2 micron resolution to measure the thickness of the retinal cell layers in vivo.
Paraffin-embedded samples of eyes from Wt and Bbs2^−/− mice were prepared and analysed as described supra. The primary antibodies used were rhodopsin (Thermo Scientific) and cone arrestin (EMD Millipore).

[3] = tested on: human preadipocytes SQ cells with BBS1, BBS2 or BBS10 knocked-down; test: In vitro adipocyte differentiation assay; type: cell-based; details: 1.25-10 μM, 10 days differentiation
Protocol: In Vitro Adipocyte Differentiation Assay
In order to examine the effect of Compound 1 on other mutations, we developed an in vitro differentiation assay in human preadipocyte cells. The BBS genes BBS1, BBS2, or BBS10 were knocked-down in cells using siRNA. For this, human preadipocytes SQ cells (Lonza) were plated in PGM-2 Preadipocyte Growth Medium-2 BulletKit, (Lonza) at 30,000 cells/cm^2 density and grown at 37° C. overnight. On the next day, cells were transfected with BBS1, BBS2 or BBS10 specific siRNA in OptiMem (Invitrogen) in the presence of Lipofectamine 2000 (Invitrogen) and differentiated in RDM-2 medium (Lonza) for 10 days with or without Compound 1 at concentrations of […], 5.0 and 10 μM (stock of Compound 1 was prepared in 100% ethanol and diluted with RDM-2 medium to final concentrations before adding to cells). A mixture of nonspecific siRNA (scrambled) was used as a negative control. Media was harvested for leptin analysis with Quantikine ELISA kit (RnD Systems, Inc.) at days 0, 5, 7 and 10 of adipocytes differentiation. Photomicroscopy (Axiovert 25, Zeiss with LASv4.2, Leica) was used to quantify lipid accumulation, which is evident by the size and quantity of lipid vacuoles in the cells.

Bbs2−/− mice [4] = test: Metabolic parameters in Bbs2−/− mice; type: in vivo, mouse
Source text: as §1
Body composition was analyzed using an EchoMRI™. Measurements of the fat mass and of lean mass were recorded and percent of body fat was calculated. Body composition was calculated using the following formula: fat mass/(fat mass+lean mass).
Food weights were recorded from the food hopper and bedding. Average food consumption per animal per day was estimated using the following formula: [(food weight at start of period−(food weight at end of period in hopper[…])]/#animals in the cage/#days of observation.
Blood was collected during necropsy and incubated for 15 minutes at room temperature to allow clot formation. Clot was removed by centrifugation at 15,000 rpm for 5 minutes to collect serum. Leptin ELISA kit (R&D Systems) was used to measure leptin concentrations according to the manufacturer's instructions.
Total RNA was isolated from homogenized adipose tissue dissected from 6-month old mice using TRizol and chloroform extraction followed by the RNAeasy Mini Kit Purification (Qiagen), quantified using the NanoDrop 2300 system, and was reverse transcribed using High Capacity cDNA Reverse Transcription Kit (Applied Biosystems). Primers for Fas and Srebf1 were purchased from Applied Biosystems. Quantitative PCR was performed in duplicate for each sample on an Applied Biosystems RT-PCR machine using Taqman Universal Master Mix (Thermo Fisher) according to the manufacturer's instructions. Relative amounts of mRNA were determined using the Comparative CT Method for quantification and were normalized to GAPDH mRNA levels.
Automated digital image analysis was performed on whole adipose tissues using Visiopharm Image Analysis software (DK-2970 Hoersholm, Denmark, version 6.9.1). Two custom-written applications were created and run consecutively for each digital image. The first application detected adipose tissue using threshold classification and outlined the area as a Region of Interest (ROI). The second application used threshold to classify the tissue inside the ROI into three categories: Cytoplasm (cytoplasmic membrane), Adipose (Adipocyte), and Other (unwanted artifacts, large vessels, other tissue). Post processing steps included enclosing adipose with cytoplasm and selecting adequate adipose cells for counting by removing any adipose with a form factor less than 0.5.
Paraffin-embedded samples of brain tissue from Wt and Bbs2^−/− mice were cut and 4 micrometer sections were boiled in Antigen Retrieval solution (DAKO) in a pressure cooker to unmask antigens. Sections were blocked for 1 hour with 3% BSA followed by incubation with primary antibodies to adenylate cyclase III (Santa Cruz Biotechnology) diluted in 3% BSA overnight at 4° C. Alexa Fluor 488 secondary antibody (Invitrogen) was used at the dilution 1:1000. Images were acquired on a Leica DM5500B microscope fitted with ×40 and ×60 objectives using Leica Application Suite Advance Fluorescence software (Leica Microsystems).

[5] = 0.033% w/w in feed from 1 to 6 months of age
[6] = established disease, 0.033% w/w in feed starting at 4 months of age, after one month
[7] = white adipose tissue, feed from 1 to 6 months of age

Structure (SMILES): CC(C)(NC(=O)OC1CN2CCC1CC2)c1cccc(-c2ccc(F)cc2)c1 (stereo not shown) [Compound 1, 1-azabicyclo[2.2.2]oct-3-yl [2-(4′-fluorobiphenyl-3-yl)propan-2-yl]carbamate]
- levels of GL1 in the brain, kidney, liver and serum [1]: reduction
- increase in the thickness of the ONL (Bbs2−/− mice [2]): ~2 fold
- rod-cone specific staining (rhodopsin, cone arrestin) (Bbs2−/− mice [2]): partial restoration/preservation of rod-cone specific staining
- leptin secretion [3]: reduction
- lipid accumulation [3]: reduction of lipid accumulation
- body fat (Bbs2−/− mice [4]; [5]): significant decrease
- body weight (Bbs2−/− mice [4]; [5]): significant decrease
- food consumption (Bbs2−/− mice [4]; [5]): significant decrease
- serum leptin (Bbs2−/− mice [4]; [5]): reduced to wild type levels
- cilia in the hypothalamus (Bbs2−/− mice [4]; Compound in feed): preserved the hypothalamic cilia
- body fat (Bbs2−/− mice [4]; [6]): decreased
- body weight (Bbs2−/− mice [4]; [6]): decreased
- serum leptin (Bbs2−/− mice [4]; [6]): decreased
- adipocyte size (Bbs2−/− mice [4]; established disease, after the two-month treatment): decrease of adipocyte size
- adipocyte size (Bbs2−/− mice [4]; [7]): reduction of adipocyte size
- expression of pro-adipogenic gene Srebf1 (Bbs2−/− mice [4]; [7]): corrected upon treatment to the levels observed in Wt control
